Source: patent publication US11549123B2, “Plant EPSP synthases and methods of use” (PIONEER HI-BRED INTERNATIONAL, INC., priority 2015, dated 2023)

What was measured:
[1] = tested on: Glycine max (93Y21) hairy root; test: Hairy root growth from transformed soybean cotyledons with or without 25 uM glyphosate; format: cell-based; conditions: medium containing 25 uM glyphosate
[2] = biological target: Zea mays EPSPS variant WT-FS-E2 (102A 302S 391G 438R I208L) (Zea mays, UniProt O24566, E301S/E390G/G101A/I207L/V437R); test: EPSPS substrate saturation kinetics, WT-FS-E2; format: biochemical
Sequence of Zea mays EPSPS variant WT-FS-E2 (102A 302S 391G 438R I208L) (O24566 entry or part of it G101A/I207L/E301S/E390G/V437R): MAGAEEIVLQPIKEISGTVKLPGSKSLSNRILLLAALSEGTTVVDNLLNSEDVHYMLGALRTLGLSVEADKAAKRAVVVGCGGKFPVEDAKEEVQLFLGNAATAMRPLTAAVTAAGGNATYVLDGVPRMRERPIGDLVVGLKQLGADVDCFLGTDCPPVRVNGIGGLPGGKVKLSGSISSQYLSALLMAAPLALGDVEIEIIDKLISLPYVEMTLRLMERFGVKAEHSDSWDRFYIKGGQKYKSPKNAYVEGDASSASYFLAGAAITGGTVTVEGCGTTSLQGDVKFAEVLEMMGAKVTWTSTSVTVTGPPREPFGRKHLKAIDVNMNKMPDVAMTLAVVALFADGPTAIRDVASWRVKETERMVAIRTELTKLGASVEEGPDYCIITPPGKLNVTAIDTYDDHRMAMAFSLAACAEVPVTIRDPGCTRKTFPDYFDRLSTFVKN
Experimental: (§1) EPSPS activity was determined by quantifying the phosphate generated from the EPSPS reaction. Release of inorganic phosphate was coupled to reaction with 2-amino-6-mercapto-7-methylpurine ribonucleoside, catalyzed by purine-nucleoside phosphorylase (M R Webb, Proc. Natl. Acad. Sci. 89:4884-4887, 1992). The absorbance change that occurs was monitored at 360 nm, where the extinction is 11,200 M^−1 cm^−1, with a Spectramax plate reader (Molecular Devices). To determine kinetic parameters, the varied substrate was present at seven concentrations (the eighth being the blank, containing no substrate) ranging from 4 to 400 uM and the unvaried substrate present at saturation. […] Reactions were monitored with a Spectramax plate reader. […] KI was then calculated from the following form of the Michaelis-Menten equation for competitive inhibition: KI=KM[I]/(KM app−KM) KM approximates the dissociation constant of the enzyme-substrate complex while kcat is the rate of conversion of substrate to product when the substrate concentration is saturating. kcat/KM is a widely accepted parameter for catalytic efficiency when substrate concentration is low (˜KM). […] The parameter kcat/KM×KI is used to quantify both catalytic efficiency and insensitivity and thus the overall fitness of the enzyme. […]

[3] = biological target: Oryza sativa EPSPS with 868-H6 mutations, SEQ ID NO:11 (Oryza sativa, UniProt Q93VK6, A482G/A67R/A69W/D368S/D468G/E457G/G168A/I274L/K149R/L164C/T345A/T427S/T507Q/V137Q/V504R); test: EPSPS substrate saturation kinetics, rice H6; format: biochemical
Sequence of Oryza sativa EPSPS with 868-H6 mutations, SEQ ID NO:11 (Q93VK6 64-511 with the stated changes): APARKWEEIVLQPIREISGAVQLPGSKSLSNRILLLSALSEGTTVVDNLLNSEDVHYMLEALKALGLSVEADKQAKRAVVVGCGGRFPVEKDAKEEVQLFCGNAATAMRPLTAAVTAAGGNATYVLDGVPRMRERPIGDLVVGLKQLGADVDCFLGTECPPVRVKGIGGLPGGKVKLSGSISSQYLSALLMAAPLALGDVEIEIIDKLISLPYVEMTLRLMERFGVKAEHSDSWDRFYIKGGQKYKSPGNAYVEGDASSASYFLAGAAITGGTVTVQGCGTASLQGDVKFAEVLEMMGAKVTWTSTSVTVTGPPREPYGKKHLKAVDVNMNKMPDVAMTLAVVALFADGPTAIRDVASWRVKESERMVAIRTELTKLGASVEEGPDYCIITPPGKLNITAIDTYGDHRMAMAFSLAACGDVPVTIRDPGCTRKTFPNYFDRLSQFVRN
Experimental: as §1

Bacterial EPSPS (CP4) = Bacterial EPSPS (CP4) (Agrobacterium sp., UniProt Q9R4E4); test: Rapid two-rate method for (kcat/KM)*KI, bacterial EPSPS (CP4); format: biochemical
Sequence of Bacterial EPSPS (CP4) (Q9R4E4 whole entry): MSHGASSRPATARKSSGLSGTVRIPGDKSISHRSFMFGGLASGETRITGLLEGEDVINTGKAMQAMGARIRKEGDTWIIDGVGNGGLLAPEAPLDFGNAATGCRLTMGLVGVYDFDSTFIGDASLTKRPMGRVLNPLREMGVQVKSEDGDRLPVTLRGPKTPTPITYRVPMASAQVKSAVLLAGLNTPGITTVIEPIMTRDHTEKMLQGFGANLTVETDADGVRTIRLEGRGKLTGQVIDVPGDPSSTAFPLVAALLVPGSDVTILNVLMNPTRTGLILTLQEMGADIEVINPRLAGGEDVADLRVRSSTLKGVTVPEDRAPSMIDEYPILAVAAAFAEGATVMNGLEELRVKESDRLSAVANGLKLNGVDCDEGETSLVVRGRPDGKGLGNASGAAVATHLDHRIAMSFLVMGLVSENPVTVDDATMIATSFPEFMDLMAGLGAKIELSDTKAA
Text: There are several practical considerations for accurately estimating (kcat/KM)*KI with the rapid method. […] 2) The inhibitor concentration must be adjusted so as to obtain a degree of inhibition that minimally amplifies the error in the term v0-vi in Equation 3. If inhibition is too little, v0-vi will be small, and the error in the multiplier vi×v0/(v0-vi) will be large. […] 3) Substrate concentration should be set at the approximate KM of the parental variant(s), subject to the sensitivity of the assay. High substrate concentration obscures sensitivity to the inhibitor and reduces stringency for capturing improvements in KM. Depending on the necessity for speed, there exists opportunity for customizing enzyme and inhibitor concentrations. […] The rapid method was repeated for those and obtained data that correlated better with data obtained by substrate saturation analysis. For screening purposes however, that correlation step is not necessary. Conditions can be set so that variants with a pre-determined minimal fitness level are accurately quantified.
In Table 15, parameters above the heavy line for the rapid method were obtained under standard conditions. For variants shown below the heavy line, the rapid analysis was repeated with enzyme or glyphosate concentrations adjusted as needed to generate sufficient signal within the limits for linear initial rates.

[4] = PEP as substrate, glyphosate as inhibitor

O=C(O)CNCP(=O)(O)O [glyphosate, N-phosphonomethylglycine]
root growth of untransformed cotyledons [1]: no growth | Ki [2]: 663 µM | (kcat/KM)*KI [2, 4]: 4512 | Ki [3]: 907 µM | (kcat/KM)*KI [3, 4]: 9200 | (kcat/KM)*KI (Bacterial EPSPS (CP4); rapid method repeated, CP4, [E] 0.007 uM, [Gly] 2000 uM): 111800 | (kcat/KM)*KI (Bacterial EPSPS (CP4); rapid method, Bacterial EPSPS, [E] 0.07 uM, [Gly] 1000 uM): 64262
